Assay [1] deals with PAF-induced platelet aggregation. As to the kind of experiment: Platelet Aggregation Assay (PAF antagonism, in vitro). Particulars: human platelet-rich plasma, PAF 1-5×10^-8 M, 37° C. The class given is cell-based. The protocol:
Platelet Aggregation Assay
Platelet-activating factor (PAF) causes aggregation of platelets by a receptor-mediated mechanism. Therefore, PAF-induced platelet aggregation provides a simple and convenient assay to screen compounds for PAF antagonism.
Human blood (50 mL) was collected from healthy male donors in an anticoagulant solution (5 mL) containing sodium citrate (3.8%) and dextrose (2%), Blood was centrifuged at 110×g for 15 min. and the supeernatant platelet-rich plasma (PRP) carefully transferred into a polypropylene tube. Platelet-poor-plasma (PPP) was prepared by centrifuging PRP at 12,000×g for 2 min. (Beckman Microfuge B). PRP was used within 3 hr. of drawing the blood.
PAF was dissolved In chloroform:methanol (1:1, v/v) at a concentration of 2 mg/mL and stored at -70° C. An aliquot of this solution was transferred to a polypropylene tube and dried under a flow of nitrogen gas. To the dried sample was added Hepes-e-BSA (BSA=bovine serum albumen) buffer (25 mM Hepes, pH 7.4, […], 0.7 mM MgCl2 and 0.1% BSA) to obtain a 1 mM solution and sonicated for 5 min. in a bath sonicator. This stock solution was further diluted to appropriate concentrations in Hepes-saline-BSA buffer. Collagen (Sigma) and adenosine diphosphate (ADP) (Sigma) were purchased as solutions. Test compounds were initially dissolved in dimethyl sulfoxide (DMSO) at a concentration of 50 mM and then further diluted in Hepes-saline-BSA buffer to achieve appropriate concentrations.
When an aggregating agen such as PAF is added to PRP, platelets aggregate. An aggregometer quantifies this aggreation by measuring and comparing light (infra-red) transmission through PPP and PRP. Aggregation assays were performed using a dual-channel aggregometer (Model 440, Chrono-Log Corp., Havertown, Pa.). PRP (0.45 mL) in aggregometer cuvettes was continually stirred (37° C.). Solution (50 μL) of test compounds or vehicle were added to the PRP and, after incubation for 2 min., 10-15 μl aliquots of PAF solution were added to achieve a final concentration of 1-5×10^-8 M. In different experiments the aggregatory response was kept within a set limit by varying the concentration of PAF. Incubations were continued until the increase in light transmission reached a maximum (usually 2 min.). This increase in lighyt transmission reflecting platlet aggregation is transmitted to a computer by the Chrono-Log model 810 AGGRO/LINK interface. The AGGRO/LINK calculates the slope of transmission change, thus providing the rate of aggregation. Values for inhibition were calculated by comparing rates of aggregation obtained in the absence and the presence of the compound. […]

For assay [2], the system named is PAF. As to the kind of experiment: PAF-induced bronchospasm in guinea pigs (in vivo, oral). Particulars: PAF 0.4 μg/kg i.v. Also on record: species or system guinea pig. The protocol:
(§1) B. In Vivo Studies: Agonist-Induced Responses Spasmogen-Induced Bronchospasm in Guinea Pigs
(§2) Male Hartley guinea pigs (450-550 g) were obtained from Charles River Breeding Laboratories. The animals were fasted overnight and the following day were anesthetized with 0.9 mL/kg i.p. of dialurethane (containing 0.1 g/mL dialylbarbiturikc acid, 0.4 g/mL ethylurea and 0.4 g/mL urethane). The left jugular vein was cannulated for the administration of compounds. The trachea was cannulated and the animals were venticlated by a rodent respirator at 55 strokes/min. with a stroke volume of 4 mL. A side arm to the tracheal cannula was connected to a pressure transducer to obtain a continuous measure of inflation pressure. Bronchoconstriction was measured as the percent increase in inflation pressure that peaked within 5 min. after challenge with spasmogen. The animals were challenged i.v. with either histamine (10 ug/kg) or PAF (0.4 μg/kg in isotonic saline containing 0.25% BSA). Each animal was challenged with only a single spasmogen. The effect of a compound on the bronchospasm is expressed as a percent inhibition of the increase in inflation pressure compared to the increase in a control group.

Assay [3] deals with Histamine. As to the kind of experiment: Histamine-induced bronchospasm in guinea pigs (in vivo, oral). The note with it: histamine 10 ug/kg i.v. Also on record: species or system guinea pig. The method, then: as §1, §2
Setting [4] is: oral 3 mg/kg, 2 hours after drug.
Setting [5] is: oral 15 mg/kg, 8 hours after drug.
The mark [6] stands for this setting: oral 5 mg/kg, 8 hours after drug.
[7] abbreviates: oral 15 mg/kg, 16 hours after drug.
The mark [8] stands for this setting: oral 10 mg/kg, 6 hours after drug.
Setting [9] is: oral 10 mg/kg, 16 hours after drug.

Structures are written as SMILES.

What is called IC50 is the concentration needed to halve the response being measured.

Regarding `CC(=O)N1CCC(=C2c3ccc(Cl)cc3CCc3cccnc32)CC1` [Compound No. 1], in assay [1], the IC50 was 600 nM. In addition, the results for the “Agonist Bronchospasm (in vivo)-Oral, PAF, Inhibition” value in assay [2] (setting [4]) and in assay [2] (setting [5]) were 3% and 32%, respectively. For the same compound, the “Agonist Bronchospasm (in vivo)-Oral, Histamine, Inhibition” value in assay [3] (setting [4]) was determined as 49%; in assay [3] (setting [5]), 100%.
For `CC(=O)N1CCC(=C2c3ccc(Cl)cc3OCc3cccnc32)CC1` [Compound No. 2], the IC50 in assay [1] came to 6000 nM. Also, the “Agonist Bronchospasm (in vivo)-Oral, PAF, Inhibition” value in assay [2] (oral 10 mg/kg, 2 hours after drug) came out at 27%.
Compound `O=C(c1cc[n+]([O-])cc1)N1CCC(=C2c3ccc(Cl)cc3CCc3cccnc32)CC1` [Compound No. 3] gave an IC50 in assay [1] of 200 nM. Besides, the results for the “Agonist Bronchospasm (in vivo)-Oral, PAF, Inhibition” value in assay [2] (setting [4]), in assay [2] (setting [6]) and in assay [2] (setting [7]) were 93%, 12% and 13%, respectively. Moreover, the “Agonist Bronchospasm (in vivo)-Oral, Histamine, Inhibition” value is recorded as 37% in assay [3] (setting [4]), 33% in assay [3] (setting [6]) and 64% in assay [3] (setting [7]).
Regarding `O=C(c1cc[n+]([O-])cc1)N1CCC(=C2c3ccc(Cl)cc3OCc3cccnc32)CC1` [Compound No. 4, 4-(8-Chloro-5,11-dihydro 1!benzoxepino 4,3-b!pyridin-11-ylidene)-1-(4-pyridinylcarbonyl)piperidine N^1-oxide], in assay [1], half-maximal inhibition (IC50) required 400 nM. Besides, the “Agonist Bronchospasm (in vivo)-Oral, PAF, Inhibition” value turned out to be 76% in assay [2] (setting [4]), 94% in assay [2] (setting [8]) and 55% in assay [2] (setting [9]). In addition, the results for the “Agonist Bronchospasm (in vivo)-Oral, Histamine, Inhibition” value in assay [3] (setting [4]), in assay [3] (setting [8]) and in assay [3] (setting [9]) were 46%, 73% and 95%, respectively.

These data come from patent US5514687A, “Benzopyrido piperidylidene compounds, compositions, methods of manufacture and method of use” (Schering Corporation, priority 1993, dated 1996).
